Values joined by “and” are separate entries in the source; they are usually repeats but may differ in a detail not shown here. Equal values may be shown once.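 Tested at 5 concentrations; 48 h exposure; 96-well plates; endpoints linearly interpolated, else capped at highest concentration. At the GI50, growth is halved. TGI: total growth inhibition.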

Among the test systems are 786-0 renal; HL-60(TB) leukemia; IGROV1 ovarian; MOLT-4 leukemia; OVCAR-4 ovarian; SF-539 CNS; SNB-75 CNS; U251 CNS.
Common to all, as to test: NCI tumour cell line growth inhibition, 48 h

In the case of `COc1c(O)c2c3c(c1OC)-c1ccccc1CC3N(S(=O)(=O)c1ccc(C)cc1)CC2` (stereo unspecified), the GI50 with 786-0 renal was 4.89 µM; with HL-60(TB) leukemia it was 1.18 µM; in the assay with IGROV1 ovarian it was 2.13 µM; with MOLT-4 leukemia, 2.14 µM; in the assay on OVCAR-4 ovarian, 3.7 µM; with SF-539 CNS it was 1.15 µM. In addition, the GI50 in the assay on SNB-75 CNS was 0.933 µM; in the assay with U251 CNS it was 1.69 µM. Also, the TGI in the assay with 786-0 renal was over 50 µM; in the assay with HL-60(TB) leukemia, 7.46 µM; in the assay on IGROV1 ovarian, over 50 µM; with MOLT-4 leukemia, 10.9 µM; with OVCAR-4 ovarian, over 50 µM; with SF-539 CNS, 3.16 µM. For the same molecule, the TGI in the assay on SNB-75 CNS is 3.92 µM; in the assay on U251 CNS, over 50 µM.

`Cc1nc2c(Br)cc(Br)cc2c(=O)n1-c1ccccc1NC1OCC(O)C(O)C1O` (stereo unspecified): the GI50 in the assay on 786-0 renal was 45.1 µM and 13.6 µM; in the assay on HL-60(TB) leukemia it was 18.6 µM and 7.03 µM; in the assay with MOLT-4 leukemia it was 19.5 µM and 3.5 µM; in the assay on SF-539 CNS, 48.4 µM and 7.53 µM; in the assay on U251 CNS, 38.3 µM and 16.1 µM. For the same molecule, the TGI was > 100 µM and 32.6 µM in the assay with 786-0 renal; 43.4 µM and 15.7 µM with HL-60(TB) leukemia; over 100 µM in the assay on IGROV1 ovarian; 61.1 µM and > 36.1 µM in the assay on MOLT-4 leukemia; over 100 µM in the assay on OVCAR-4 ovarian; > 100 µM and 22.3 µM with SF-539 CNS. Also, the TGI was > 100 µM and 53.2 µM in the assay with SNB-75 CNS; over 100 µM in the assay with U251 CNS.

For the molecule `COc1ccc(OCC(O)CN2CCN(c3ccc(Cl)cc3)CC2)cc1` (stereo unspecified), the GI50 in the assay with 786-0 renal was over 100 µM; with HL-60(TB) leukemia, over 100 µM; with IGROV1 ovarian, 18.1 µM; in the assay on MOLT-4 leukemia, over 100 µM; with OVCAR-4 ovarian, over 100 µM; in the assay on SF-539 CNS it was over 100 µM. Besides, the figures for the GI50 with SNB-75 CNS and with U251 CNS were 17 µM and 79.3 µM, respectively. The TGI with 786-0 renal, with HL-60(TB) leukemia, with IGROV1 ovarian, in the assay with MOLT-4 leukemia, in the assay with OVCAR-4 ovarian and in the assay with SF-539 CNS was over 100 µM each time. Moreover, the TGI with SNB-75 CNS was 83.5 µM; in the assay with U251 CNS, over 100 µM.

For the molecule `OCC#Cc1ccccc1C#Cc1ccc(C#Cc2ccccc2)cc1`, the GI50 with 786-0 renal is 23.5 µM; with HL-60(TB) leukemia, 0.489 µM; in the assay on IGROV1 ovarian, 28.4 µM; in the assay on MOLT-4 leukemia it was 2.65 µM; in the assay on OVCAR-4 ovarian, 20.4 µM; with SF-539 CNS, 21.4 µM. The GI50 with SNB-75 CNS is 32.4 µM; with U251 CNS, 19.9 µM. The TGI was 55.9 µM in the assay with 786-0 renal; over 100 µM in the assay on HL-60(TB) leukemia; over 100 µM with IGROV1 ovarian; 43.5 µM in the assay on MOLT-4 leukemia; over 100 µM with OVCAR-4 ovarian; 45.6 µM in the assay on SF-539 CNS. Moreover, the TGI in the assay with SNB-75 CNS is over 100 µM; in the assay with U251 CNS it was 38.6 µM.

Take `CC1(C)CC[C@]2(C(=O)O)CC[C@]3(C)C(=CC[C@@H]4[C@@]5(C)C/C(=C/c6ccco6)C(=O)C(C)(C)[C@@H]5CC[C@]43C)[C@@H]2C1`: the GI50 was 4.12 µM in the assay on 786-0 renal; 2.55 µM in the assay on HL-60(TB) leukemia; 4.48 µM with IGROV1 ovarian; 1.04 µM in the assay on MOLT-4 leukemia; 3.76 µM in the assay with OVCAR-4 ovarian; 3.34 µM in the assay with SF-539 CNS. Moreover, the GI50 in the assay on SNB-75 CNS was 3.04 µM; with U251 CNS, 3.45 µM. Also, the TGI in the assay with 786-0 renal is 26.5 µM; in the assay with HL-60(TB) leukemia it was 6.84 µM; in the assay on IGROV1 ovarian it was 22.2 µM; with MOLT-4 leukemia, over 100 µM; in the assay on OVCAR-4 ovarian, 41.1 µM; with SF-539 CNS, 11.6 µM. For the same molecule, the TGI with SNB-75 CNS was determined as 54.6 µM; in the assay with U251 CNS it was 15 µM.

Consider `COc1cc(/C=C2\C(=O)N(C)c3ccccc32)cc(OC)c1OC`, for which the GI50 was 25.3 µM in the assay on 786-0 renal; 7.26 µM with HL-60(TB) leukemia; 7.52 µM with IGROV1 ovarian; 12 µM in the assay on MOLT-4 leukemia; 18.6 µM in the assay on OVCAR-4 ovarian; 19.7 µM with SF-539 CNS. Further, the values for the GI50 with SNB-75 CNS and in the assay with U251 CNS were 11.5 µM and 7.49 µM, respectively. Moreover, the TGI with 786-0 renal is 97.4 µM; with HL-60(TB) leukemia it was over 100 µM; with IGROV1 ovarian it was 53.4 µM; in the assay on MOLT-4 leukemia it was 74.3 µM; with OVCAR-4 ovarian, over 100 µM; in the assay with SF-539 CNS, over 100 µM. Besides, the TGI with SNB-75 CNS is 70 µM; in the assay on U251 CNS, 41.7 µM.

For `NC(N)=N/N=C(/c1ccccc1)c1ccccc1F`, the GI50 with 786-0 renal was 4.58 µM; in the assay on HL-60(TB) leukemia, 2.96 µM; in the assay on IGROV1 ovarian it was 2.89 µM; in the assay on MOLT-4 leukemia, 5.57 µM; in the assay with OVCAR-4 ovarian, 1.73 µM; in the assay on SF-539 CNS, 0.8 µM. Moreover, the GI50 is 0.661 µM with SNB-75 CNS and 2.64 µM in the assay with U251 CNS. In addition, the TGI is 21 µM in the assay on 786-0 renal; over 100 µM with HL-60(TB) leukemia; over 50 µM in the assay on IGROV1 ovarian; over 100 µM with MOLT-4 leukemia; 32 µM in the assay on OVCAR-4 ovarian; 4.59 µM in the assay on SF-539 CNS. In addition, the values for the TGI in the assay with SNB-75 CNS and with U251 CNS were 21.7 µM and 13.3 µM, respectively.

Regarding `CCSc1ncc(Br)c(Sc2nc(N)nc3nc[nH]c23)n1`, the GI50 in the assay on 786-0 renal was 3.22 µM; with HL-60(TB) leukemia, 19.8 µM; with IGROV1 ovarian, 2.7 µM; in the assay with MOLT-4 leukemia it was 3.42 µM; in the assay with OVCAR-4 ovarian, 2.29 µM; with SF-539 CNS, 3.52 µM. For the same molecule, the results for the GI50 in the assay with SNB-75 CNS and in the assay on U251 CNS were 1.57 µM and 18.1 µM, respectively. Moreover, the TGI with 786-0 renal was over 100 µM; with HL-60(TB) leukemia it was 88.6 µM; in the assay with IGROV1 ovarian, 30 µM; with MOLT-4 leukemia, over 100 µM; in the assay with OVCAR-4 ovarian it was 30.5 µM; in the assay on SF-539 CNS, 31.5 µM. The figures for the TGI in the assay with SNB-75 CNS and in the assay with U251 CNS were 14 µM and over 100 µM, respectively.

Consider `COc1ccc(Cc2nc3cc(OC)c(OC)cc3c(=O)[nH]2)cc1`, for which the GI50 is 7.31 µM with 786-0 renal; 1.78 µM in the assay on HL-60(TB) leukemia; 4.61 µM with IGROV1 ovarian; 5.36 µM in the assay with MOLT-4 leukemia; 25.4 µM in the assay on OVCAR-4 ovarian; 7.97 µM with SF-539 CNS. Besides, the GI50 is 9.79 µM in the assay on SNB-75 CNS and 10.5 µM in the assay with U251 CNS. The TGI is over 100 µM in the assay with 786-0 renal; 4.8 µM in the assay with HL-60(TB) leukemia; over 67.2 µM with IGROV1 ovarian; over 59.6 µM in the assay on MOLT-4 leukemia; over 100 µM in the assay on OVCAR-4 ovarian; 39.7 µM with SF-539 CNS. The results for the TGI in the assay with SNB-75 CNS and in the assay with U251 CNS were 40.1 µM and over 100 µM, respectively.

The record behind these values is PubChem BioAssay (NCI).
